Source: US20250313563A1, “GLYCOGEN SYNTHASE KINASE 3 INHIBITORS AND USES THEREOF” (The Broad Institute, Inc., priority 2022, published 2025)
Where two headings read alike, the source gives them in different places.

Columns and labels:
[1] = target: GSK3b (GST-full length GSK3b) (Homo sapiens (Human), UniProt P49841); assay: GSK3b TR-FRET kinase assay; type: biochemical
Method in brief: (§1)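 1 nM GST-GSK3α/β + cpd, 30 min preinc; add 200 nM biotin-pS645 GS(631-650) peptide + ATP (α 4 μM / β 2 μM, or 1 mM); 100 min RT, 50 mM Tris pH 7.5, 20 mM MgCl2, 1% DMSO; EDTA stop; SA-d2/Tb-pSer641 Ab 60 min; 665/615 ratio → IC50.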

[2] = target: GSK3α (GST-full length GSK3α) (Homo sapiens (Human), UniProt P49840); assay: GSK3α TR-FRET kinase assay; type: biochemical
Method in brief: as §1

[3] = 1 nM GSK3b, 2 μM ATP, 30 minute preincubation, Table 16, read-out: GSK3-B TR-FRET BIOCHEMICAL (TR-FRET)
[4] = 1 nM GSK3α, 4 μM ATP, 30 minute preincubation, Table 16, read-out: GSK3-A TR-FRET BIOCHEMICAL (TR-FRET)
[5] = 1 nM GSK3b, 2 μM ATP, 30 minute preincubation, Table 16, read-out: GSK3-B TR-FRET BIOCHEMICAL (TR-FRET), IC50
[6] = 1 nM GSK3α, 4 μM ATP, 30 minute preincubation, Table 16, read-out: GSK3-A TR-FRET BIOCHEMICAL (TR-FRET), IC50
[7] = 1 nM GSK3b, 2 μM ATP, 30 minute preincubation, read-out: GSK3-B TR-FRET BIOCHEMICAL (TR-FRET), IC50
[8] = 1 nM GSK3α, 4 μM ATP, 30 minute preincubation, read-out: GSK3-A TR-FRET BIOCHEMICAL (TR-FRET), IC50
[9] = read-out: GSK3-B (TR-FRET 1 mM ATP), GMean, IC50, 1 mM ATP, geometric mean
[10] = read-out: GSK3-A (TR-FRET 1 mM ATP), GMean, IC50, 1 mM ATP, geometric mean

Sequence of GSK3b (GST-full length GSK3b) (P49841 whole entry): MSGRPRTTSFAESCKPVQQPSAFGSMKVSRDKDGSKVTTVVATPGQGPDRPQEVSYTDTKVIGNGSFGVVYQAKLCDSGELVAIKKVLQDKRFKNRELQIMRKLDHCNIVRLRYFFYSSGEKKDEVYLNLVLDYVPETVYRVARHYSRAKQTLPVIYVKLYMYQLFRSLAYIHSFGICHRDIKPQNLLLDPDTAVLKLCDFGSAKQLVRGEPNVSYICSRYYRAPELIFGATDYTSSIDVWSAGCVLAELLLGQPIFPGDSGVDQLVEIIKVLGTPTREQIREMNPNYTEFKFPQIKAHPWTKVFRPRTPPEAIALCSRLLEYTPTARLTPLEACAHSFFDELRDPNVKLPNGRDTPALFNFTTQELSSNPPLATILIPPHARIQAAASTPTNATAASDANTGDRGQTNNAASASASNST
Sequence of GSK3α (GST-full length GSK3α) (P49840 whole entry): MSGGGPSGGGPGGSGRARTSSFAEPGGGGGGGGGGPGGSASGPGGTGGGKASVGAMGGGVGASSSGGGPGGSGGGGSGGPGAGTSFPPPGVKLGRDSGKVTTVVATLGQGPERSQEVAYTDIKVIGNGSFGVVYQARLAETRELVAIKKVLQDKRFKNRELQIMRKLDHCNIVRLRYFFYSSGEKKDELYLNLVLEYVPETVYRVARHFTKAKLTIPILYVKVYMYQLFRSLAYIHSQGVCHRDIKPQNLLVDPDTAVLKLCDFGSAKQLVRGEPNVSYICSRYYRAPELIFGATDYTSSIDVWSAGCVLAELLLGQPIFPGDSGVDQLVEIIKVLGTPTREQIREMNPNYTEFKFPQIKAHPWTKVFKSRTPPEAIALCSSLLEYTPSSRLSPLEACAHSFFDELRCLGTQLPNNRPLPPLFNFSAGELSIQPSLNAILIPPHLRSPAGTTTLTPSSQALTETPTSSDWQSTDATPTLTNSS

Row | Compound | IC50 [1, 3] [nM] | IC50 [2, 4] [nM] | IC50 [1, 5] [nM] | IC50 [2, 6] [nM] | further results
1 | CC1(C)CC2=C(C(=O)[C@@H]1F)C1(CCOCC1)c1c[nH]nc1N2 [Compound 883835] | 100 to 1000 | 100 to 1000 |  |  | 
2 | CC1(C)CC2=C(C(=O)[C@H]1F)C1(CCOCC1)c1c[nH]nc1N2 [Compound 883836] | 1000 to 5000 | 100 to 1000 |  |  | 
3 | C[C@H]1CC[C@]2(C1)C1=C(CC(C)(C)CC1=O)Nc1n[nH]cc12 [Compound 883840] | 100 to 1000 | 100 to 1000 |  |  | 
4 | C[C@@H]1CC[C@@]2(C1)C1=C(CC(C)(C)CC1=O)Nc1n[nH]cc12 [Compound 883841] | 100 to 1000 | 100 to 1000 |  |  | 
5 | CC1(C)CC(=O)C2=C(C1)Nc1n[nH]cc1[C@@]21CCCC(C)(C)C1 [Compound 883846] | 1000 to 5000 | 100 to 1000 |  |  | 
6 | CCC1(c2cccc(-c3ccnc(OC)c3)c2)C2=C(CC(C)(C)CC2=O)Nc2n[nH]cc21 (stereo not drawn) [Compound 883850] |  |  | 100 to 1000 | ≤ 100 | 
7 | CCC1(c2cccc(-c3c(C)nn(C)c3C)c2)C2=C(CC(C)(C)CC2=O)Nc2n[nH]cc21 (stereo not drawn) [Compound 883851] |  |  | ≤ 100 | ≤ 100 | 
8 | CC1(C)CC(=O)C2=C(C1)Nc1n[nH]cc1C21CC(C)(C)C1 [Compound 883864] | 100 to 1000 | ≤ 100 |  |  | 
9 | Cc1[nH]nc2c1C1(CCCCC1)C1=C(CC(C)(C)CC1=O)N2 [Compound 883865] | 100 to 1000 | ≤ 100 |  |  | 
10 | CCC1(c2ccccc2)C2=C(CCN(C)C2=O)Nc2n[nH]cc21 (stereo not drawn) [Compound 883867] |  |  |  |  | IC50 [1, 7]: > 5000 nM; IC50 [2, 8]: > 5000 nM
11 | CCC1(c2cccc(C)c2)C2=C(CC(C)(C)CC2=O)Nc2n[nH]c(C(F)(F)F)c21 (stereo not drawn) [Compound 883873] |  |  | ≤ 100 | ≤ 100 | IC50 [1, 9]: 100 to 1000 nM; IC50 [2, 10]: ≤ 100 nM
12 | CCC1(c2cccc(N3CCCC3)c2)C2=C(CC(C)(C)CC2=O)Nc2n[nH]c(C)c21 (stereo not drawn) [Compound 883874] |  |  | ≤ 100 | ≤ 100 | IC50 [1, 9]: 100 to 1000 nM; IC50 [2, 10]: ≤ 100 nM
13 | CC[C@]1(c2cccc(N3CCCC3)c2)C2=C(CC(C)(C)CC2=O)Nc2n[nH]c(C)c21 [Compound 883875] |  |  | 1000 to 5000 | 100 to 1000 | 
14 | CC1(C)CC(=O)C2=C(C1)Nc1n[nH]cc1C21CCN(CC(F)F)CC1 [Compound 883962] | 100 to 1000 | 100 to 1000 |  |  | 
15 | CC1(C)CC(=O)C2=C(C1)Nc1n[nH]cc1C21CCC(F)(F)CC1 [Compound 883972] | 100 to 1000 | ≤ 100 |  |  | 
16 | CC1(C)CC(=O)C2=C(C1)Nc1n[nH]cc1C21CCSC1 (stereo not drawn) [Compound 883973] | 100 to 1000 | ≤ 100 |  |  | 
17 | CC1(C)CC(=O)C2=C(C1)Nc1n[nH]cc1C21CCC2(CC1)COC2 [Compound 883977] |  |  |  |  | IC50 [1, 7]: 100 to 1000 nM; IC50 [2, 8]: ≤ 100 nM
18 | CC1(C)CC(=O)C2=C(C1)Nc1n[nH]cc1C21CCCCCC1 [Compound 883978] | 100 to 1000 | 100 to 1000 |  |  | 
19 | CC[C@@]1(c2cccc(C(F)(F)F)c2)C2=C(Nc3n[nH]cc31)[C@H](C)CN(C)C2=O [Compound 883980] |  |  |  |  | IC50 [1, 7]: ≤ 100 nM; IC50 [1, 9]: 1000 to 5000 nM; IC50 [2, 8]: ≤ 100 nM; IC50 [2, 10]: 100 to 1000 nM
20 | CC[C@]1(c2cccc(C(F)(F)F)c2)C2=C(Nc3n[nH]cc31)[C@@H](C)CN(C)C2=O [Compound 883981] |  |  |  |  | IC50 [1, 7]: > 5000 nM; IC50 [2, 8]: > 5000 nM
21 | CC[C@]1(c2cccc(C(F)(F)F)c2)C2=C(Nc3n[nH]cc31)[C@H](C)CN(C)C2=O [Compound 883982] |  |  |  |  | IC50 [1, 7]: > 5000 nM; IC50 [2, 8]: > 5000 nM
22 | CCC1(c2cccc(-c3ccncc3)c2)C2=C(CC(C)(C)CC2=O)Nc2n[nH]cc21 (stereo not drawn) [Compound 883984] |  |  | ≤ 100 | ≤ 100 | 
23 | CCC1(c2cccc(-c3ccncc3F)c2)C2=C(CC(C)(C)CC2=O)Nc2n[nH]cc21 (stereo not drawn) [Compound 883986] |  |  | ≤ 100 | ≤ 100 | 
24 | CCC1(c2cccc(-c3ccnc(C)c3)c2)C2=C(CC(C)(C)CC2=O)Nc2n[nH]c(C)c21 (stereo not drawn) [Compound 883987] |  |  | 100 to 1000 | ≤ 100 | 
25 | CCC1(c2cccc(-c3ccnc(C(F)(F)F)c3)c2)C2=C(CC(C)(C)CC2=O)Nc2n[nH]c(C)c21 (stereo not drawn) [Compound 883989] |  |  | 100 to 1000 | ≤ 100 | 
26 | CCC1(c2cccc(-c3ccnc(N(C)C)c3)c2)C2=C(CC(C)(C)CC2=O)Nc2n[nH]c(C)c21 (stereo not drawn) [Compound 883990] |  |  | 100 to 1000 | ≤ 100 | 
27 | CCC1(c2cccc(-c3ccncc3C)c2)C2=C(CC(C)(C)CC2=O)Nc2n[nH]c(C)c21 (stereo not drawn) [Compound 883991] |  |  | ≤ 100 | ≤ 100 | 
